# What was measured:
# Assay type in all cases: in vivo
# Conditions in all cases: evaluated after 13 days
# [1] = system: Amaranthus palmeri (AMAPA); test: Pre-emergence Test, Amaranthus palmeri (AMAPA)
# [2] = system: Amaranthus palmeri (AMAPA); test: Post-emergence Test, Amaranthus palmeri (AMAPA); parameters: key: 5=81-100%, 4=61-80%, 3=41-60%, 2=21-40%, 1=0-20% damage
# Summary of the method: (§1)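 Tested at 1000 g/ha unless otherwise stated. Plants were held at 24/16 °C day/night with a 14 h light period. Percent damage was read at 13 days and reported in five bands.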
# [3] = system: Ipomoea hederacea (IPOHE); test: Pre-emergence Test, Ipomoea hederacea (IPOHE)
# [4] = system: Echinochloa crus-galli (ECHCG); test: Post-emergence Test, Echinochloa crus-galli (ECHCG); parameters: key to percentage damage caused to the plant, ECHCG (five-point scale): 5=81-100%, 4=61-80%, 3=41-60%, 2=21-40%, 1=0-20% damage
# Summary of the method: as §1
# [5] = system: Amaranthus retoflexus (AMARE); test: Post-emergence Test, Amaranthus retoflexus (AMARE); parameters: key to percentage damage caused to the plant, AMARE (five-point scale): 5=81-100%, 4=61-80%, 3=41-60%, 2=21-40%, 1=0-20% damage
# Summary of the method: as §1
# [6] = system: Echinochloa crus-galli (ECHCG); test: Pre-emergence Test, Echinochloa crus-galli (ECHCG)
# [7] = system: Zea mays (ZEAMX); test: Post-emergence Test, Zea mays (ZEAMX); parameters: key to percentage damage caused to the plant, ZEAMX (five-point scale): 5=81-100%, 4=61-80%, 3=41-60%, 2=21-40%, 1=0-20% damage
# Summary of the method: as §1
# [8] = system: Amaranthus retoflexus (AMARE); test: Pre-emergence Test, Amaranthus retoflexus (AMARE)
# [9] = system: Setaria faberi (SETFA); test: Pre-emergence Test, Setaria faberi (SETFA)
# [10] = system: Setaria faberi (SETFA); test: Post-emergence Test, Setaria faberi (SETFA); parameters: key to percentage damage caused to the plant, SETFA (five-point scale): 5=81-100%, 4=61-80%, 3=41-60%, 2=21-40%, 1=0-20% damage
# Summary of the method: as §1
# [11] = system: Zea mays (ZEAMX); test: Pre-emergence Test, Zea mays (ZEAMX)
# [12] = system: Ipomoea hederacea (IPOHE); test: Post-emergence Test, Ipomoea hederacea (IPOHE); parameters: key to percentage damage caused to the plant, IPOHE (five-point scale): 5=81-100%, 4=61-80%, 3=41-60%, 2=21-40%, 1=0-20% damage
# Summary of the method: as §1
smiles,measurement,setting,value
"CCOCc1ccn(Cc2cc(=O)c(C(=O)O)c(-c3ccc(Cl)c(Cl)c3)n2CC)n1 [Compound 173, 2-(3,4-dichlorophenyl)-6-[[3-(ethoxymethyl)pyrazol-1-yl]methyl]-1-ethyl-4-oxo-pyridine-3-carboxylic acid]","Pre-emergence Test AMAPA, percentage damage caused to the plant (five-point scale)",[1]; 1000 g/ha,0
same,"percentage damage caused to the plant, AMAPA (five-point scale)",[2]; 250 g/Ha,0
same,"percentage damage caused to the plant, AMAPA (five-point scale)",[2]; 1000 g/ha,1 (1=0-20%)
same,"Pre-emergence Test IPOHE, percentage damage caused to the plant (five-point scale)",[3]; 1000 g/ha,3 (3=41-60%)
same,"percentage damage caused to the plant, ECHCG (five-point scale)",[4]; 250 g/Ha,2 (2=21-40%)
same,"percentage damage caused to the plant, ECHCG (five-point scale)",[4]; 1000 g/ha,4 (4=61-80%)
same,"percentage damage caused to the plant, AMARE (five-point scale)",[5]; 250 g/Ha,0
same,"percentage damage caused to the plant, AMARE (five-point scale)",[5]; 1000 g/ha,1 (1=0-20%)
same,"Pre-emergence Test ECHCG, percentage damage caused to the plant (five-point scale)",[6]; 1000 g/ha,4 (4=61-80%)
same,"percentage damage caused to the plant, ZEAMX (five-point scale)",[7]; 250 g/Ha,0
same,"percentage damage caused to the plant, ZEAMX (five-point scale)",[7]; 1000 g/ha,1 (1=0-20%)
same,"Pre-emergence Test AMARE, percentage damage caused to the plant (five-point scale)",[8]; 1000 g/ha,0
same,"Pre-emergence Test SETFA, percentage damage caused to the plant (five-point scale)",[9]; 1000 g/ha,4 (4=61-80%)
same,"percentage damage caused to the plant, SETFA (five-point scale)",[10]; 250 g/Ha,1 (1=0-20%)
same,"percentage damage caused to the plant, SETFA (five-point scale)",[10]; 1000 g/ha,4 (4=61-80%)
same,"Pre-emergence Test ZEAMX, percentage damage caused to the plant (five-point scale)",[11]; 1000 g/ha,0
same,"percentage damage caused to the plant, IPOHE (five-point scale)",[12]; 250 g/Ha,1 (1=0-20%)
same,"percentage damage caused to the plant, IPOHE (five-point scale)",[12]; 1000 g/ha,2 (2=21-40%)
"CCn1c(Cn2ccc(CC#N)n2)cc(=O)c(C(=O)O)c1-c1ccc(Cl)c(Cl)c1 [Compound 175, 6-[[3-(cyanomethyl)pyrazol-1-yl]methyl]-2-(3,4-dichlorophenyl)-1-ethyl-4-oxo-pyridine-3-carboxylic acid]","Pre-emergence Test AMAPA, percentage damage caused to the plant (five-point scale)",[1]; 1000 g/ha,0
same,"percentage damage caused to the plant, AMAPA (five-point scale)",[2]; 250 g/Ha,0
same,"percentage damage caused to the plant, AMAPA (five-point scale)",[2]; 1000 g/ha,0
same,"Pre-emergence Test IPOHE, percentage damage caused to the plant (five-point scale)",[3]; 1000 g/ha,1 (1=0-20%)
same,"percentage damage caused to the plant, ECHCG (five-point scale)",[4]; 250 g/Ha,1 (1=0-20%)
same,"percentage damage caused to the plant, ECHCG (five-point scale)",[4]; 1000 g/ha,2 (2=21-40%)
same,"percentage damage caused to the plant, AMARE (five-point scale)",[5]; 250 g/Ha,0
same,"percentage damage caused to the plant, AMARE (five-point scale)",[5]; 1000 g/ha,0
same,"Pre-emergence Test ECHCG, percentage damage caused to the plant (five-point scale)",[6]; 1000 g/ha,1 (1=0-20%)
same,"percentage damage caused to the plant, ZEAMX (five-point scale)",[7]; 250 g/Ha,0
same,"percentage damage caused to the plant, ZEAMX (five-point scale)",[7]; 1000 g/ha,1 (1=0-20%)
same,"Pre-emergence Test AMARE, percentage damage caused to the plant (five-point scale)",[8]; 1000 g/ha,0
same,"Pre-emergence Test SETFA, percentage damage caused to the plant (five-point scale)",[9]; 1000 g/ha,3 (3=41-60%)
same,"percentage damage caused to the plant, SETFA (five-point scale)",[10]; 250 g/Ha,0
same,"percentage damage caused to the plant, SETFA (five-point scale)",[10]; 1000 g/ha,3 (3=41-60%)
same,"Pre-emergence Test ZEAMX, percentage damage caused to the plant (five-point scale)",[11]; 1000 g/ha,0
same,"percentage damage caused to the plant, IPOHE (five-point scale)",[12]; 250 g/Ha,1 (1=0-20%)
same,"percentage damage caused to the plant, IPOHE (five-point scale)",[12]; 1000 g/ha,2 (2=21-40%)
"CCn1c(Cn2nccc2C#N)cc(=O)c(C(=O)O)c1-c1ccc(Cl)c(Cl)c1 [Compound 176, 6-[(5-cyanopyrazol-1-yl)methyl]-2-(3,4-dichlorophenyl)-1-ethyl-4-oxo-pyridine-3-carboxylic acid]","Pre-emergence Test AMAPA, percentage damage caused to the plant (five-point scale)",[1]; 250 g/Ha (*),1 (1=0-20%)
same,"Pre-emergence Test AMAPA, percentage damage caused to the plant (five-point scale)",[1]; 1000 g/ha,2 (2=21-40%)
same,"percentage damage caused to the plant, AMAPA (five-point scale)",[2]; 250 g/Ha,0
same,"Pre-emergence Test IPOHE, percentage damage caused to the plant (five-point scale)",[3]; 250 g/Ha (*),0
same,"Pre-emergence Test IPOHE, percentage damage caused to the plant (five-point scale)",[3]; 1000 g/ha,1 (1=0-20%)
same,"percentage damage caused to the plant, ECHCG (five-point scale)",[4]; 250 g/Ha,2 (2=21-40%)
same,"percentage damage caused to the plant, ECHCG (five-point scale)",[4]; 1000 g/ha,4 (4=61-80%)
same,"percentage damage caused to the plant, AMARE (five-point scale)",[5]; 250 g/Ha,0
same,"percentage damage caused to the plant, AMARE (five-point scale)",[5]; 1000 g/ha,3 (3=41-60%)
same,"Pre-emergence Test ECHCG, percentage damage caused to the plant (five-point scale)",[6]; 250 g/Ha (*),2 (2=21-40%)
same,"Pre-emergence Test ECHCG, percentage damage caused to the plant (five-point scale)",[6]; 1000 g/ha,4 (4=61-80%)
same,"percentage damage caused to the plant, ZEAMX (five-point scale)",[7]; 250 g/Ha,0
same,"percentage damage caused to the plant, ZEAMX (five-point scale)",[7]; 1000 g/ha,1 (1=0-20%)
same,"Pre-emergence Test AMARE, percentage damage caused to the plant (five-point scale)",[8]; 250 g/Ha (*),0
same,"Pre-emergence Test AMARE, percentage damage caused to the plant (five-point scale)",[8]; 1000 g/ha,0
same,"Pre-emergence Test SETFA, percentage damage caused to the plant (five-point scale)",[9]; 250 g/Ha (*),4 (4=61-80%)
same,"Pre-emergence Test SETFA, percentage damage caused to the plant (five-point scale)",[9]; 1000 g/ha,4 (4=61-80%)
same,"percentage damage caused to the plant, SETFA (five-point scale)",[10]; 250 g/Ha,2 (2=21-40%)
same,"percentage damage caused to the plant, SETFA (five-point scale)",[10]; 1000 g/ha,4 (4=61-80%)
same,"Pre-emergence Test ZEAMX, percentage damage caused to the plant (five-point scale)",[11]; 250 g/Ha (*),0
same,"Pre-emergence Test ZEAMX, percentage damage caused to the plant (five-point scale)",[11]; 1000 g/ha,0
same,"percentage damage caused to the plant, IPOHE (five-point scale)",[12]; 250 g/Ha,2 (2=21-40%)
same,"percentage damage caused to the plant, IPOHE (five-point scale)",[12]; 1000 g/ha,3 (3=41-60%)
CCn1c(Cn2ccc(C(F)F)n2)cc(=O)c(C(=O)O)c1-c1ccc(Cl)c(Cl)c1 [Compound 186],"Pre-emergence Test AMAPA, percentage damage caused to the plant (five-point scale)",[1]; 250 g/Ha (*),0
same,"Pre-emergence Test AMAPA, percentage damage caused to the plant (five-point scale)",[1]; 1000 g/ha,1 (1=0-20%)
same,"percentage damage caused to the plant, AMAPA (five-point scale)",[2]; 250 g/Ha,2 (2=21-40%)
same,"percentage damage caused to the plant, AMAPA (five-point scale)",[2]; 1000 g/ha,2 (2=21-40%)
same,"Pre-emergence Test IPOHE, percentage damage caused to the plant (five-point scale)",[3]; 250 g/Ha (*),2 (2=21-40%)
same,"Pre-emergence Test IPOHE, percentage damage caused to the plant (five-point scale)",[3]; 1000 g/ha,4 (4=61-80%)
same,"percentage damage caused to the plant, ECHCG (five-point scale)",[4]; 250 g/Ha,4 (4=61-80%)
same,"percentage damage caused to the plant, ECHCG (five-point scale)",[4]; 1000 g/ha,4 (4=61-80%)
same,"percentage damage caused to the plant, AMARE (five-point scale)",[5]; 250 g/Ha,1 (1=0-20%)
same,"percentage damage caused to the plant, AMARE (five-point scale)",[5]; 1000 g/ha,3 (3=41-60%)
same,"Pre-emergence Test ECHCG, percentage damage caused to the plant (five-point scale)",[6]; 250 g/Ha (*),4 (4=61-80%)
same,"Pre-emergence Test ECHCG, percentage damage caused to the plant (five-point scale)",[6]; 1000 g/ha,5 (5=81-100%)
same,"percentage damage caused to the plant, ZEAMX (five-point scale)",[7]; 250 g/Ha,1 (1=0-20%)
same,"percentage damage caused to the plant, ZEAMX (five-point scale)",[7]; 1000 g/ha,1 (1=0-20%)
same,"Pre-emergence Test AMARE, percentage damage caused to the plant (five-point scale)",[8]; 250 g/Ha (*),0
same,"Pre-emergence Test AMARE, percentage damage caused to the plant (five-point scale)",[8]; 1000 g/ha,2 (2=21-40%)
same,"Pre-emergence Test SETFA, percentage damage caused to the plant (five-point scale)",[9]; 250 g/Ha (*),5 (5=81-100%)
same,"Pre-emergence Test SETFA, percentage damage caused to the plant (five-point scale)",[9]; 1000 g/ha,5 (5=81-100%)
same,"percentage damage caused to the plant, SETFA (five-point scale)",[10]; 250 g/Ha,4 (4=61-80%)
same,"percentage damage caused to the plant, SETFA (five-point scale)",[10]; 1000 g/ha,4 (4=61-80%)
same,"Pre-emergence Test ZEAMX, percentage damage caused to the plant (five-point scale)",[11]; 250 g/Ha (*),0
same,"Pre-emergence Test ZEAMX, percentage damage caused to the plant (five-point scale)",[11]; 1000 g/ha,3 (3=41-60%)
same,"percentage damage caused to the plant, IPOHE (five-point scale)",[12]; 250 g/Ha,4 (4=61-80%)
same,"percentage damage caused to the plant, IPOHE (five-point scale)",[12]; 1000 g/ha,4 (4=61-80%)

# Reference: US20250098679A1, “HERBICIDAL PYRIDONE DERIVATIVES” (SYNGENTA CROP PROTECTION AG, priority 2021, published 2025)
